Measured values from patent publication US20240360126A1, “PYRAZOLO[3,4-B]PYRIDINE COMPOUNDS FOR THE TREATMENT OF AUTOIMMUNE DISEASE” (Hoffmann-La Roche Inc., priority 2021, published 2024).
pIC50: −log10 of the molar value.

What was measured:
[1] = Human microsome stability assay; format: in vitro ADME; conditions: 1 μM test compound, 0.5 mg/mL liver microsomal protein, 37° C.
Method: The human microsomal stability assay is used for early assessment of metabolic stability of a test compound in human liver microsomes.
Human liver microsomes (Cat. NO.: 452117, Corning, USA; Cat. NO.:H2610, Xenotech, USA) were preincubated with test compound for 10 minutes at 37° C. in 100 mM potassium phosphate buffer, pH 7.4. The reactions were initiated by adding NADPH regenerating system.
The final incubation mixtures contained 1 μM test compound, 0.5 mg/mL liver microsomal protein, 1 mM MgCl2, 1 mM NADP, 1 unit/mL isocitric dehydrogenase and 6 mM isocitric acid in 100 mM potassium phosphate buffer, pH 7.4. After incubation times of 0, 3, 6, 9, 15 and 30 minutes at 37° C., 300 μL of cold acetonitrile (including internal standard) was added to 100 μL incubation mixture to terminate the reaction. Following precipitation and centrifugation, the amount of compound remaining in the samples were determined by LC-MS/MS. Controls of no NADPH regenerating system at zero and 30 minutes were also prepared and analyzed.

TLR9 = biological target: T1, TLR9 (Homo sapiens, UniProt Q9NR96); experiment: Human PBMC cell-based assay; parameters: These cells express TLR7, TLR8, or TLR9, and therefore are natural responders to respective ligand stimulation; endogenous in cells; host or cells: human PBMC from healthy donor whole blood; conditions: CpG ODN 2216 at 1 μM, read-out: hPBMC/TLR9 IC50
T1 sequence (Q9NR96 26-1032): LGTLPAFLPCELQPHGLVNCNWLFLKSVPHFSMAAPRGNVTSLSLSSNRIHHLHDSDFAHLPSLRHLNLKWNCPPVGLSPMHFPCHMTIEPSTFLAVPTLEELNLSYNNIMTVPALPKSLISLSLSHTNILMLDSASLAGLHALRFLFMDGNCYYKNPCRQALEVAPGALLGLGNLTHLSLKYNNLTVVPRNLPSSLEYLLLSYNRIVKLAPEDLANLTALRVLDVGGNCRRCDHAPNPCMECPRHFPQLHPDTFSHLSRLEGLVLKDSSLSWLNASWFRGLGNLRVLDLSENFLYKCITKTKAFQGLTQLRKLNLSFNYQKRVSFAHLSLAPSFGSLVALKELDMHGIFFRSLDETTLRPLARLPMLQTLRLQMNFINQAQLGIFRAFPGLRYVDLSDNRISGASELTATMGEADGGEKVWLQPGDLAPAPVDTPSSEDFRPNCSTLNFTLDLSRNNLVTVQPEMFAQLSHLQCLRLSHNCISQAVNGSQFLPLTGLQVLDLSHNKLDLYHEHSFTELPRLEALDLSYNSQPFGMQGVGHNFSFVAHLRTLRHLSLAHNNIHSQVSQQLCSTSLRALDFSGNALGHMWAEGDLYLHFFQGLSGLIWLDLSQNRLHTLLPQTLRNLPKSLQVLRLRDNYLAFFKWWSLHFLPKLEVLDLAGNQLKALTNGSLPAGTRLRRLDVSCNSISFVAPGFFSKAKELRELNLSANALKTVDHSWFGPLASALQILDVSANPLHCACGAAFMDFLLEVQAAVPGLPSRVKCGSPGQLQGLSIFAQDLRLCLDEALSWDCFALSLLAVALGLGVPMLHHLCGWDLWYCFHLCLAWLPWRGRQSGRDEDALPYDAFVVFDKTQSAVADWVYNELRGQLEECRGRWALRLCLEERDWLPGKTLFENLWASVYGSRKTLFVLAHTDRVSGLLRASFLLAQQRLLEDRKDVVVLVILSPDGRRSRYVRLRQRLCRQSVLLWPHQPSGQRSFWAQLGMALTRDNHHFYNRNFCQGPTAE
Source text: Unlike the HEK reporter cell lines, human peripheral blood mononuclear cell (PBMC) represents primary human immune cells in blood mainly consisting of lymphocytes, monocytes, and dendritic cells. These cells express TLR7, TLR8, or TLR9, and therefore are natural responders to respective ligand stimulation. Upon activation of these TLRs, PBMCs secrete similar cytokines and chemokines in vitro and in vivo, and therefore the in vitro potency of a TLR7/8/9 antagonist in human PBMC is readily translatable to its pharmacodynamics response in vivo.
Human peripheral blood mononuclear cells (PBMC) were isolated from freshly-drawn lithium-heparinized (Lithium Heparin Plus blood Collection tube, BD Vacutainer®) healthy donor whole blood by density gradient (Ficoll-Paque™ PLUS, GE Healthcare life Sciences). Briefly, […] was diluted with 25 mL PBS (without Ca^2+, Mg^2+) in a 50 mL conical tube with porous barrier (Leucosep tube, Greiner bio-one), where 15.5 mL Ficoll-Paque was under laid after spinning. Tubes were centrifuged for 20 minutes at 800×g (1946 rpm) with the brake in the off position, and PBMC were collected from the buffy coat. Cells were then washed twice in PBS, and red blood cells were lysed by suspension in 2 mL (Red Blood Cell Lysis Buffer, Alfa Aesar) for 5-10 minutes at room temperature. After a final wash in PBS, PBMC were resuspended at a final concentration of 2×10^6 cells/mL in RPMI-1640 media with GlutaMAX™ (Gibco) supplemented with 10% Fetal Bovine Serum (Sigma) and plated at 150 μL/well (3×10^5 cells/well) in tissue culture treated round bottom 96-well plates (Corning Incorporated). Antagonist compounds (compounds of this invention) solubilized and serial diluted in 100% DMSO were added in duplicate to cells to yield a final concentration of 1% DMSO (v/v). PBMC were incubated with antagonist compounds for 30 minutes at 37° C., 5% CO2 before adding various TLR agonist reagents in 48 μL complete media per well as follows (final concentrations indicated): CpG ODN 2216 (InvivoGen) at 1 μM for TLR9, ORN 06/LyoVec (InvivoGen) at […] for TLR8 and R848 (InvivoGen) at 1 μg/mL for TLR7 and TLR8. PBMC were incubated overnight at 37° C. with 5% C02. Cell culture supernatants were collected, and levels of various human cytokines were assessed by Luminex assay (ProcartaPlex™ Multiplex Immunoassay, Invitrogen) or ELISA procedure according to the manufacturer's recommended protocol (eBioscience, ThermoFisher Scientific). Viability of the cells was also checked with Cell Viability Assay (CellTiter Glo® Luminescent Cell Viability Assay, Promega).

For Cc1cc(N2CC[C@@H](c3ncc(N4C[C@H]5NCCO[C@@H]5C4)cc3C)[C@H](C)C2)c2cnn(C)c2n1 [Example 33, (4aR,7aR)-6-[6-[(3S,4R)-1-(1,6-dimethylpyrazolo[3,4-b]pyridin-4-yl)-3-methyl-4-piperidyl]-5-methyl-3-pyridyl]-3,4,4a,5,7,7a-hexahydro-2H-pyrrolo[3,4-b][1,4]oxazine], the “Clearance of Human microsome” value [1] was 6.2 mL/min/kg and the pIC50 (TLR9) was 6.84.
For Cc1cc(N2CC[C@H](c3ccc(N4CC(C)(N)C4)cn3)[C@@H](C)C2)c2cnn(C)c2n1 [Example 43, 1-[6-[(3R,4S)-1-(1,6-dimethylpyrazolo[3,4-b]pyridin-4-yl)-3-methyl-4-piperidyl]-3-pyridyl]-3-methyl-azetidin-3-amine], the “Clearance of Human microsome” value [1] was 6.5 mL/min/kg and the pIC50 (TLR9) was 6.33.
With Cc1cc(N2CCC(c3ccc(N4CCNCC4)cn3)CC2)c2cnn(C)c2n1 [Example 2, 1,6-dimethyl-4-[4-(5-piperazin-1-yl-2-pyridyl)-1-piperidyl]pyrazolo[3,4-b]pyridine] the “Clearance of Human microsome” value [1] was 8.2 mL/min/kg and the pIC50 (TLR9) was 6.33.
For Cc1cc(N2CC[C@@H](c3ncc(N4CCOC[C@@H](N)C4)cc3C)[C@H](C)C2)c2cnn(C)c2n1 [Example 28, (6S)-4-[6-[(3S,4R)-1-(1,6-dimethylpyrazolo[3,4-b]pyridin-4-yl)-3-methyl-4-piperidyl]-5-methyl-3-pyridyl]-1,4-oxazepan-6-amine], the “Clearance of Human microsome” value [1] was 6.2 mL/min/kg and the pIC50 (TLR9) was 6.28.
With COC[C@H]1CN(c2cnc([C@@H]3CCN(c4cc(C)nc5c4cnn5C)C[C@H]3C)c(C)c2)CCN1 [Example 29, 4-[(3S,4R)-4-[5-[(3R)-3-(methoxymethyl)piperazin-1-yl]-3-methyl-2-pyridyl]-3-methyl-1-piperidyl]-1,6-dimethyl-pyrazolo[3,4-b]pyridine] the “Clearance of Human microsome” value [1] was 6.8 mL/min/kg and the pIC50 (TLR9) was 6.15.
For Cc1cc(N2CCC(c3ncc(N4CCNCC4)cc3C)CC2)c2cnn(C)c2n1 [Example 7, 1,6-dimethyl-4-[4-(3-methyl-5-piperazin-1-yl-2-pyridyl)-1-piperidyl]pyrazolo[3,4-b]pyridine], the “Clearance of Human microsome” value [1] was 6.2 mL/min/kg and the pIC50 (TLR9) was 6.38.
In the case of Cc1cc(N2CC[C@H](c3ccc(N4CCNCC4)cn3)[C@@H](C)C2)c2cnn(C)c2n1 [Example 35, 1,6-dimethyl-4-[(3R,4S)-3-methyl-4-(5-piperazin-1-yl-2-pyridyl)-1-piperidyl]pyrazolo[3,4-b]pyridine], the “Clearance of Human microsome” value [1] was 6.2 mL/min/kg and the pIC50 (TLR9) was 6.06.
With Cc1cc(N2CCC(c3cnc(N4CCNCC4)cc3C)[C@H](C)C2)c2cnn(C)c2n1 (single isomer, unassigned) [Example 21, 1,6-dimethyl-4-[trans-3-methyl-4-(4-methyl-6-piperazin-1-yl-3-pyridyl)-1-piperidyl]pyrazolo[3,4-b]pyridine] the “Clearance of Human microsome” value [1] was 7.8 mL/min/kg and the pIC50 (TLR9) was 6.07.
